Results from patent US9868739B2, “Salt(s) of 7-cyclopentyl-2-(5-piperazin-1-yl-pyridin-2-ylamino)-7H-pyrrolo[2,3-d]pyrimidine-6-carboxylic acid dimethylamide and processes of making thereof” (Novartis AG, priority 2010, dated 2018).

What was measured:
[1] = Dynamic Vapor Sorption (DVS), moisture cycles 0-90-0% RH; assay type: physicochemical
[2] = Dynamic Vapor Sorption (DVS), moisture cycle 0-80-0% RH; assay type: physicochemical
physchem = settings: water

For CN(C)C(=O)c1cc2cnc(Nc3ccc(N4CCNCC4)cn3)nc2n1C1CCCC1.O=C(O)CCC(=O)O [Compound of Formula (II), 7-Cyclopentyl-N,N-dimethyl-2-(5-(piperazin-1-yl)pyridin-2-ylamino)-7H-pyrrolo[2,3-d]pyrimidine-6-carboxamide succinate], the moisture absorbed ([1]; at 90% RH, in each cycle (0 to 90 to 0% RH, two cycles)) was “up to 2%”, the “physical form after exposure” value ([1]; upon exposure to 90% RH (XRPD, DSC, TGA)) was “change in physical form” and the “Change In Mass (%) Hysteresis” value ([2]; Cycle 1, target RH 50.0%) was 0.0074%. The “Change In Mass (%) Hysteresis” value ([2]; Cycle 1, target RH 60.0%) was 0.0140%, the “Change In Mass (%) Desorption” value ([2]; Cycle 1, target RH 80.0%) was 0.5200% and the moisture absorbed ([2]; at 80% RH (0 to 80 to 0% RH cycle)) was “up to 0.5%”. For the same molecule, the “physical form after exposure” value ([2]; upon exposure to 80% RH (XRPD)) was “stability of the physical form”.

For CN(C)C(=O)c1cc2cnc(Nc3ccc(N4CCNCC4)cn3)nc2n1C1CCCC1.O=C(O)CCC(=O)O [hydrate form, succinate salt of 7-Cyclopentyl-2-(5-piperazin-1-yl-pyridin-2-ylamino)-7H-pyrrolo[2,3-d]pyrimidine-6-carboxylic acid dimethylamide], the solubility (physchem; solubility) was under 0.5 mg/mL.

In the case of CN(C)C(=O)c1cc2cnc(Nc3ccc(N4CCNCC4)cn3)nc2n1C1CCCC1.O=C(O)CCC(=O)O [non-hydrate form, succinate salt of 7-Cyclopentyl-2-(5-piperazin-1-yl-pyridin-2-ylamino)-7H-pyrrolo[2,3-d]pyrimidine-6-caboxylic acid dimethylamide], the solubility (physchem; solubility in water) is reported as about 30 mg/mL.
